Tested on: 624824-186-R-J2-PDC multicell spheroids, viability
Assay: Anticancer human tumor 624824-186-R-J2-PDC patient-derived colon adenocarcinoma cell line growth inhibition [PI3K]
Settings: for IC50: curve of first compound; for viability, T/C: stronger effect = lower value
Outline: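 Viability of mixed-cell spheroids was determined after exposure to pairwise combinations, one partner being inavolisib, alpelisib, duvelisib or copanlisib. Highest tested concentration matched clinical Cmax where known and 10 microM where not, descending in half-log steps.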
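Note: spheroids exposed to agents for 7 days before viability read.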
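Throughout, for viability, T/C: 100% = DMSO vehicle treated spheroids.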

IC50 (second compound 0.00316 µM): 3.92 µM | IC50 (second compound 0.01 µM): 3.61 µM | IC50 (second compound 0.0316 µM): 4.16 µM | IC50 (second compound 0.1 µM): 3.16 µM | IC50 (second compound 0.316 µM): 3.46 µM | IC50 (second compound 1 µM): 3.23 µM
SMILES: CC1(C)CCC(Nc2ncc(C(F)(F)F)c(-c3c[nH]c4c(P(C)(C)=O)c(C#N)ccc34)n2)CN1 (configuration not stated) + CC(Nc1ccc2c(c1)OCCn1cc(N3C(=O)OCC3C(F)F)nc1-2)C(N)=O
viability, T/C (second compound 0.00316 µM, first compound 0.0316 µM): 73.8% | viability, T/C (second compound 0.00316 µM, first compound 0.1 µM): 84.7% | viability, T/C (second compound 0.00316 µM, first compound 0.316 µM): 86.4% | viability, T/C (second compound 0.00316 µM, first compound 1 µM): 98.7% | viability, T/C (second compound 0.00316 µM, first compound 3.16 µM): 59.7% | viability, T/C (second compound 0.00316 µM, first compound 10 µM): 7.81% | viability, T/C (second compound 0.01 µM, first compound 0.0316 µM): 71.8% | viability, T/C (second compound 0.01 µM, first compound 0.1 µM): 70.3% | viability, T/C (second compound 0.01 µM, first compound 0.316 µM): 85% | viability, T/C (second compound 0.01 µM, first compound 1 µM): 99.8% | viability, T/C (second compound 0.01 µM, first compound 3.16 µM): 55.6% | viability, T/C (second compound 0.01 µM, first compound 10 µM): 7.27% | viability, T/C (second compound 0.0316 µM, first compound 0.0316 µM): 66.1% | viability, T/C (second compound 0.0316 µM, first compound 0.1 µM): 72.4% | viability, T/C (second compound 0.0316 µM, first compound 0.316 µM): 93.3% | viability, T/C (second compound 0.0316 µM, first compound 1 µM): 108% | viability, T/C (second compound 0.0316 µM, first compound 3.16 µM): 63.9% | viability, T/C (second compound 0.0316 µM, first compound 10 µM): 5.65% | viability, T/C (second compound 0.1 µM, first compound 0.0316 µM): 74.4% | viability, T/C (second compound 0.1 µM, first compound 0.1 µM): 85.3% | viability, T/C (second compound 0.1 µM, first compound 0.316 µM): 87.1% | viability, T/C (second compound 0.1 µM, first compound 1 µM): 105% | viability, T/C (second compound 0.1 µM, first compound 3.16 µM): 50% | viability, T/C (second compound 0.1 µM, first compound 10 µM): 5.2% | viability, T/C (second compound 0.316 µM, first compound 0.0316 µM): 68.2% | viability, T/C (second compound 0.316 µM, first compound 0.1 µM): 81.9% | viability, T/C (second compound 0.316 µM, first compound 0.316 µM): 90.2% | viability, T/C (second compound 0.316 µM, first compound 1 µM): 93.7% | viability, T/C (second compound 0.316 µM, first compound 3.16 µM): 53.9% | viability, T/C (second compound 0.316 µM, first compound 10 µM): 4.99% | viability, T/C (second compound 1 µM, first compound 0.0316 µM): 78.5% | viability, T/C (second compound 1 µM, first compound 0.1 µM): 83.1% | viability, T/C (second compound 1 µM, first compound 0.316 µM): 91.1% | viability, T/C (second compound 1 µM, first compound 1 µM): 72.9% | viability, T/C (second compound 1 µM, first compound 3.16 µM): 51.5% | viability, T/C (second compound 1 µM, first compound 10 µM): 5.93%
